Where two headings read alike, the source gives them in different places. Blank lines part the entries; values can stand above or below the molecule they belong to.
Columns and labels:
[1] = Hygroscopicity of crystalline Form I on storage at 25° C., 80% relative humidity; format: physicochemical
[2] = Solid-state stability of Form I under thermal treatment and mechanical grinding (XRPD); format: physicochemical
Procedure: POWDER X-RAY DIFFRACTION (XRPD): The solid samples from screening were examined using X-ray diffractometer (Bruker D8 advance). The system is equipped with LynxEye detector. The samples were scanned from 3 to 40° 2θ, at a step size 0.02° 2θ. The tube voltage and current were 40 KV and 40 mA, respectively. The sample was transferred from sample container onto zero background XRD-holder and gently ground.
DSC ANALYSIS: DSC analysis was conducted on a TA Instruments Q200. The calibration standard was indium. A sample in weight was placed into a TA DSC pan, and weight accurately recorded. Crimped pans were used for analysis and the samples were heated under nitrogen (50 mi/min) at a rate of 10° C./min, up to a final temperature.

wild-type EGFR (WT-EGFR) = wild-type EGFR (WT-EGFR) (Homo sapiens, UniProt P00533); settings: major metabolite of AZD9291; cited from earlier work
Sequence of wild-type EGFR (WT-EGFR) (P00533 25-1210): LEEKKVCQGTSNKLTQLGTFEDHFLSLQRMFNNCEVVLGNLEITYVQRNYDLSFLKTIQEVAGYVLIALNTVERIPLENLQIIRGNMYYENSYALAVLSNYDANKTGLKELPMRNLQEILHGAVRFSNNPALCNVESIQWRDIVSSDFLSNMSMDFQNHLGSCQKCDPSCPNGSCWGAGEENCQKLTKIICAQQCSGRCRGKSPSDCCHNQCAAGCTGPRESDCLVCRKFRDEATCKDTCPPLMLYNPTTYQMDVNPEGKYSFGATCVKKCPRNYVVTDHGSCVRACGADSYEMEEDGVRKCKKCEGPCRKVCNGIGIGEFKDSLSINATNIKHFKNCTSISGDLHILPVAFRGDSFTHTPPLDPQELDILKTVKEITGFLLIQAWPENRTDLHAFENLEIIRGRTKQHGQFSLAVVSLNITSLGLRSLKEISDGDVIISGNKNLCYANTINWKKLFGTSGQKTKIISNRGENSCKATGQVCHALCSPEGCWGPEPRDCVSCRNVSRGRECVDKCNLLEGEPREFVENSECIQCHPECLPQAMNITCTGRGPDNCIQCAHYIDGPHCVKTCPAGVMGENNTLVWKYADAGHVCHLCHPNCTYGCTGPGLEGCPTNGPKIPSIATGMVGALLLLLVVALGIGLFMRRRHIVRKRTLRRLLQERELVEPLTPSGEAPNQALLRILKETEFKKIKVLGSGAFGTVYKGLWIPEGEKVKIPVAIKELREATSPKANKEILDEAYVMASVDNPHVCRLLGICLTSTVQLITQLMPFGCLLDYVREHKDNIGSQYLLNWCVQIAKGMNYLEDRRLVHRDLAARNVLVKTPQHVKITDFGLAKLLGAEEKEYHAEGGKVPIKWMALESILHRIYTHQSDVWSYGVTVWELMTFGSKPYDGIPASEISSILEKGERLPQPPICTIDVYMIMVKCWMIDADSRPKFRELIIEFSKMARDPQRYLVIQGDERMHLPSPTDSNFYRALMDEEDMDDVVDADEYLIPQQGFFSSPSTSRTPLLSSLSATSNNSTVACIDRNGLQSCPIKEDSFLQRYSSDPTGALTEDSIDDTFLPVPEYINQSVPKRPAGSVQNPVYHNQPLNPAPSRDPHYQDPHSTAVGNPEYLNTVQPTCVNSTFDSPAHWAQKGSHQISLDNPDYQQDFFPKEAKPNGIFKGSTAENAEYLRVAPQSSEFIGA

NSCLC patients = settings: cited from earlier work

increase in weight upon storing ([1]; 25° C., relative humidity of 80%): only negligible increase in weight
hygroscopicity ([1]; crystalline Form I): non-hygroscopic
crystallinity after mechanical grinding ([2]; Form I grinded mechanically): some loss of crystallinity
solid form after thermal treatment ([2]; crystals heated in DSC cells to 220° C., then immediately placed into ice (quench), XRPD): converted into an amorphous form
Compound: C=CC(=O)Nc1cc(Nc2nccc(-c3cn(CC(F)(F)F)c4ccccc34)n2)c(OC)cc1N(C)CCN(C)C [Compound 5, N-(2-((2-(dimethylamino)ethyl)(methyl)amino)-4-methoxy-5-((4-(1-(2,2,2-trifluoroethyl)-1H-indol-3-yl)pyrimidin-2-yl)amino)phenyl)acrylamide monomesylate]

Compound: C=CC(=O)Nc1cc(Nc2nccc(-c3c[nH]c4ccccc34)n2)c(OC)cc1N(C)CCN(C)C [AZ5104]
inhibitory effect on wild-type EGFR (wild-type EGFR (WT-EGFR)): strong inhibitory effect

Compound: C#Cc1cccc(Nc2ncnc3cc(OCCOC)c(OCCOC)cc23)c1 [erlotinib]
share of patients in whom the drug has effect (NSCLC patients; Asian NSCLC patients): about 35%
share of patients in whom the drug has effect (NSCLC patients; Caucasian patients with NSCLC): about 10%

Compound: COc1cc2ncnc(Nc3ccc(F)c(Cl)c3)c2cc1OCCCN1CCOCC1 [gefitinib]
share of patients in whom the drug has effect (NSCLC patients; Asian NSCLC patients): about 35%
share of patients in whom the drug has effect (NSCLC patients; Caucasian patients with NSCLC): about 10%
